Test results reported in publication PMC3605789 (Nature communications, 2013).

Biological target: T1, inositol monophosphatase (IMPase) (Homo sapiens, UniProt P29218)
T1 sequence (P29218 1-277): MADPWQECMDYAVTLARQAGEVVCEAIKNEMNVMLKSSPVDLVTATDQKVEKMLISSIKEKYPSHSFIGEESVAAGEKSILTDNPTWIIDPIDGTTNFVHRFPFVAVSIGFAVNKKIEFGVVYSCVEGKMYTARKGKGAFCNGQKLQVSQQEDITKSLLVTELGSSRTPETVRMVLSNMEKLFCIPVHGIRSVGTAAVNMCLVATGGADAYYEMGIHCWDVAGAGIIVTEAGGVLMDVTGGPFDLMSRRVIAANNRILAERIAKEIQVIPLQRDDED
Test: electrospray mass spectrometry of the covalent complex
Format: biochemical

Structure (SMILES): O=c1c2ccccc2[se]n1-c1ccccc1 [ebselen]
- IC50: 1.5 µM
